Experimental data: ChEMBL document CHEMBL1201862, “PubChem BioAssay data set” (2004)
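Tested at 5 concentrations; 48 h exposure; 96-well plates; endpoints linearly interpolated, else capped at highest concentration. Here, GI50 denotes the concentration required for 50% inhibition of growth.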 The source made the active and inactive calls. No stated cut-off is given here; in the data, active = GI50 up to about 1.1 µM and inactive = higher.

How the values were obtained:
Assay in all cases: inhibition of tumour cell growth, NCI panel, 48 h
SK-MEL-2 = system: SK-MEL-2
786-0 = system: 786-0
NCI-H226 = system: NCI-H226
A498 = system: A498
Malme-3M = system: Malme-3M
MCF7 = system: MCF7
Hs-578T = system: Hs-578T
HT-29 = system: HT-29
CCRF-CEM = system: CCRF-CEM
TK-10 = system: TK-10
SNB-75 = system: SNB-75
EKVX = system: EKVX
OVCAR-4 = system: OVCAR-4
SF-539 = system: SF-539
SK-MEL-5 = system: SK-MEL-5
UO-31 = system: UO-31
LOX IMVI = system: LOX IMVI
ACHN = system: ACHN
MDA-MB-231 = system: MDA-MB-231
SN12C = system: SN12C
COLO 205 = system: COLO 205
HOP-62 = system: HOP-62
SK-MEL-28 = system: SK-MEL-28
SNB-19 = system: SNB-19
SF-295 = system: SF-295
NCI-H23 = system: NCI-H23
NCI-H460 = system: NCI-H460
HOP-92 = system: HOP-92
MOLT-4 = system: MOLT-4
UACC-62 = system: UACC-62
DU-145 = system: DU-145
CAKI-1 = system: CAKI-1
MDA-MB-435 = system: MDA-MB-435
RXF 393 = system: RXF 393
A549 = system: A549
SF-268 = system: SF-268
UACC-257 = system: UACC-257
BT-549 = system: BT-549
RPMI-8226 = system: RPMI-8226
HCT-116 = system: HCT-116
HL-60 = system: HL-60
M14 = system: M14
NCI/ADR-RES = system: NCI/ADR-RES
SW-620 = system: SW-620
MDA-N = system: MDA-N
IGROV-1 = system: IGROV-1
T47D = system: T47D
PC-3 = system: PC-3
K562 = system: K562
HCC 2998 = system: HCC 2998
NCI-H522 = system: NCI-H522
SR = system: SR
OVCAR-8 = system: OVCAR-8
U-251 = system: U-251
HCT-15 = system: HCT-15
KM12 = system: KM12
OVCAR-5 = system: OVCAR-5
OVCAR-3 = system: OVCAR-3
SK-OV-3 = system: SK-OV-3

CCCCCCCCCC[C@H](O)[C@H]1CC[C@H]([C@H]2CC[C@H]([C@H](O)CC[C@H](O)CCCCCCC[C@@H](O)CC3=C[C@H](C)OC3=O)O2)O1
GI50 (SK-MEL-2): 78 µM (inactive) | GI50 (786-0): 25.1 µM (inactive) | GI50 (NCI-H226): 2.47 µM (inactive) | GI50 (A498): 1.75 µM (inactive) | GI50 (Malme-3M): 25.8 µM (inactive) | GI50 (MCF7): 1.52 µM (inactive) | GI50 (Hs-578T): > 10 µM (inactive) | GI50 (HT-29): > 10 µM (inactive) | GI50 (CCRF-CEM): 3.6 µM (inactive) | GI50 (TK-10): 31 µM (inactive) | GI50 (SNB-75): 19.1 µM (inactive) | GI50 (EKVX): 23.5 µM (inactive) | GI50 (OVCAR-4): 41.4 µM (inactive) | GI50 (SF-539): 24 µM (inactive) | GI50 (SK-MEL-5): 1.41 µM (inactive) | GI50 (UO-31): 2.02 µM (inactive) | GI50 (LOX IMVI): 7.46 µM (inactive) | GI50 (ACHN): 1.6 µM (inactive) | GI50 (MDA-MB-231): > 10 µM (inactive) | GI50 (SN12C): 91.4 µM (inactive) | GI50 (COLO 205): 12.2 µM (inactive) | GI50 (HOP-62): > 10 µM (inactive) | GI50 (SK-MEL-28): > 10 µM (inactive) | GI50 (SNB-19): 17 µM (inactive) | GI50 (SF-295): 1.66 µM (inactive) | GI50 (NCI-H23): 1.82 µM (inactive) | GI50 (NCI-H460): 1.46 µM (inactive) | GI50 (HOP-92): 6.93 µM (inactive) | GI50 (MOLT-4): 2.96 µM (inactive) | GI50 (UACC-62): > 10 µM (inactive) | GI50 (DU-145): > 10 µM (inactive) | GI50 (CAKI-1): 57 µM (inactive) | GI50 (MDA-MB-435): 3.9 µM (inactive) | GI50 (RXF 393): 40 µM (inactive) | GI50 (A549): 4.6 µM (inactive) | GI50 (SF-268): 3.57 µM (inactive) | GI50 (UACC-257): 1.08 µM (active) | GI50 (BT-549): 68.1 µM (inactive) | GI50 (RPMI-8226): 1.04 µM (active) | GI50 (HCT-116): < 0.01 µM (active) | GI50 (HL-60): 2.51 µM (inactive) | GI50 (M14): 46.9 µM (inactive) | GI50 (NCI/ADR-RES): 1.61 µM (inactive) | GI50 (SW-620): > 10 µM (inactive) | GI50 (MDA-N): 8.75 µM (inactive) | GI50 (IGROV-1): 15.7 µM (inactive) | GI50 (T47D): 5.25 µM (inactive) | GI50 (PC-3): 5.7 µM (inactive) | GI50 (K562): 2.96 µM (inactive) | GI50 (HCC 2998): > 100 µM (inactive) | GI50 (NCI-H522): 10.7 µM (inactive) | GI50 (SR): 9.14 µM (inactive) | GI50 (OVCAR-8): 85.7 µM (inactive) | GI50 (U-251): > 10 µM (inactive) | GI50 (HCT-15): 43.9 µM | GI50 (KM12): 9.14 µM (inactive) | GI50 (OVCAR-5): > 10 µM (inactive) | GI50 (OVCAR-3): 18.3 µM (inactive)

O=C(N1CCN(c2ccccc2)CC1)N(C(=O)C1(c2ccc(Cl)cc2)CCCC1)S(=O)(=O)c1ccccc1
GI50 (SK-MEL-2): 19.9 µM (inactive) | GI50 (786-0): 34.5 µM (inactive) | GI50 (NCI-H226): 33.3 µM (inactive) | GI50 (A498): < 0.01 µM (active) | GI50 (Malme-3M): 26.4 µM (inactive) | GI50 (MCF7): 26.9 µM (inactive) | GI50 (Hs-578T): 29.8 µM (inactive) | GI50 (HT-29): 27.9 µM (inactive) | GI50 (CCRF-CEM): 29.7 µM (inactive) | GI50 (TK-10): 41.4 µM (inactive) | GI50 (SNB-75): 52.2 µM (inactive) | GI50 (EKVX): 21.1 µM (inactive) | GI50 (OVCAR-4): 24.1 µM (inactive) | GI50 (SF-539): 22.1 µM (inactive) | GI50 (SK-MEL-5): 19.9 µM (inactive) | GI50 (UO-31): 32.8 µM (inactive) | GI50 (LOX IMVI): 21.3 µM (inactive) | GI50 (ACHN): 14 µM (inactive) | GI50 (MDA-MB-231): 26.6 µM (inactive) | GI50 (SN12C): 28.3 µM (inactive) | GI50 (COLO 205): 24.7 µM (inactive) | GI50 (HOP-62): 29.1 µM (inactive) | GI50 (SK-MEL-28): 40.8 µM (inactive) | GI50 (SNB-19): 28.1 µM (inactive) | GI50 (SF-295): 24.6 µM (inactive) | GI50 (NCI-H23): 26.7 µM (inactive) | GI50 (NCI-H460): 30.5 µM (inactive) | GI50 (HOP-92): 32.8 µM (inactive) | GI50 (MOLT-4): 23.3 µM (inactive) | GI50 (UACC-62): 20.6 µM (inactive) | GI50 (DU-145): 38.5 µM (inactive) | GI50 (CAKI-1): 26.5 µM (inactive) | GI50 (MDA-MB-435): 43.8 µM (inactive) | GI50 (RXF 393): 42.2 µM (inactive) | GI50 (A549): 36.2 µM (inactive) | GI50 (SF-268): 39.9 µM (inactive) | GI50 (UACC-257): 28.3 µM (inactive) | GI50 (BT-549): 27.8 µM (inactive) | GI50 (RPMI-8226): 38.3 µM (inactive) | GI50 (HCT-116): 22.5 µM (inactive) | GI50 (HL-60): 27.7 µM (inactive) | GI50 (M14): 21.1 µM (inactive) | GI50 (NCI/ADR-RES): 23.7 µM (inactive) | GI50 (SW-620): 32 µM (inactive) | GI50 (MDA-N): 22.1 µM (inactive) | GI50 (T47D): 27.7 µM (inactive) | GI50 (PC-3): 26.6 µM (inactive) | GI50 (K562): 32.4 µM (inactive) | GI50 (HCC 2998): 23.9 µM (inactive) | GI50 (NCI-H522): 15.4 µM (inactive) | GI50 (SR): 53.2 µM (inactive) | GI50 (OVCAR-8): 33 µM (inactive) | GI50 (U-251): 21.8 µM (inactive) | GI50 (HCT-15): 25.1 µM | GI50 (KM12): 35.9 µM (inactive) | GI50 (OVCAR-5): 24.8 µM (inactive) | GI50 (SK-OV-3): 30 µM (inactive) | GI50 (OVCAR-3): 31.6 µM (inactive)
